From patent US10357487B2, “Combinations of acetylcholinesterase inhibitors and muscarinic agonists and methods of use thereof” (priority 2015, dated 2019)

How the values were obtained:
[1] = test system: patients with history of PVR; assay: Side effects observed in the patients
[2] = test system: patients with history of PVR; assay: Voiding trial / ability to void under stepwise drug regimens; format: in vivo, human
Protocol: In an exemplary embodiment, patients with history of PVR of 100 ml to 2500 ml failed bother standard drug treatment and the Trans Urethral Resection of the Prostate (TURP) procedure or combinations of both treatment options.
(§1) The patients opted for immediate TURP and pharmacological therapy with alpha blocker, bethanechol, and donepezil if needed.
(§2) Bethanechol was then added to maximal recommended doses, according to package insert or Physician Desk Reference (PDR), which was 200 mg per day in divided doses. […] Bethanocol was either added at 75 mg five times per day to their existing regimen or patients were switched to betahnocol alone at 75 mg five time per day.
(§3) Subsequently donepezil was added in amounts ranging from 5 or 10 to their respective regimens.
While all patients in this series were males, females can also benefit from the present combination, particularly if no obstruction exists in their urinary tract.

[3] = test system: patients with history of PVR; assay: Post void residual (PVR) before and after combination regimen in patients with urinary retention; format: in vivo, human; details: donepezil 5 or 10 added to respective regimens (alpha blocker, bethanechol); all patients
Protocol: as §1, §2, §3

[4] = silodosin 8 mg added to tamsulosin

**Q.** With CC(C[N+](C)(C)C)OC(N)=O (centres unmarked) [bethanechol, carbamyl-methylcholine chloride] as the compound, how does the side effects ([1]; bethanechol at 200 mg per day or 375 mg per day, eight patients) read?
**A.** Its side effects is “no side effects”.

**Q.** How did the voiding trial ([2]; tamsulosin 0.4 mg or 0.8 mg per day) turn out when CCOc1ccccc1OCCN[C@H](C)Cc1ccc(OC)c(S(N)(=O)=O)c1 [tamsulosin] was run?
**A.** Its voiding trial is “failed a voiding trial”.

**Q.** With C[C@H](Cc1cc2c(c(C(N)=O)c1)N(CCCO)CC2)NCCOc1ccccc1OCC(F)(F)F [silodosin] as the compound, how does the voiding trial [2, 4] read?
**A.** The voiding trial was “failed to the voiding trial”.

**Q.** And the side effects [1, 4]?
**A.** The side effects was “no extra side effects”.

**Q.** What does the source list for COc1cc2c(cc1OC)C(=O)C(CC1CCN(Cc3ccccc3)CC1)C2 (centres unmarked) [donepezil]?
**A.** reduction in PVR upon completion of the trial [3]: more than 75%; ability to void ([2]; donepezil 5 or 10 added to respective regimens, each patient): able to void; bladder emptying ([2]; eight sequentially seen patients, donepezil with bethanechol): potentiated bethanechol to facilitate bladder emptying; frequency of voiding ([2]; upon continuation of the regimen with donepezil, all patients): increasing frequency of voiding
